In US8952024B2, “Herbicidal pyrimidone derivatives” (E I du Pont de Nemours and Company, priority 2009, dated 2015):

What was measured:
Test in all cases: Test B pre-/postemergence plant response
Type in all cases: in vivo
[1] = tested on: johnsongrass (Sorghum halepense); details: Postemergence
Method in brief: (§1)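 Plants treated either at seeding (loam/sand soil) or postemergence at 2 to 18 cm height, using a surfactant-containing non-phytotoxic solvent formulation. Evaluation was visual after 13 to 15 days, 0 to 100 scale relative to controls.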

corn (Zea mays) = details: Postemergence
Method in brief: as §1

[2] = tested on: blackgrass (Alopecurus myosuroides); details: for Plant response rating, Blackgrass: Postemergence
Method in brief: as §1

[3] = tested on: Italian ryegrass (Lolium multiflorum); details: Postemergence
Method in brief: as §1

[4] = tested on: large crabgrass (Digitaria sanguinalis); details: Postemergence
Method in brief: as §1

[5] = tested on: wheat (Triticum aestivum); details: Postemergence
Method in brief: as §1

wild oat (Avena fatua) = details: Postemergence
Method in brief: as §1

[6] = tested on: pigweed (Amaranthus retroflexus); details: Postemergence
Method in brief: as §1

[7] = tested on: downy bromegrass (Bromus tectorum); details: for Plant response rating, Bromegrass, Downy: Postemergence
Method in brief: as §1

[8] = tested on: goosegrass (Eleusine indica); details: Postemergence
Method in brief: as §1

[9] = tested on: woolly cupgrass (Eriochloa villosa); details: Postemergence
Method in brief: as §1

kochia (Kochia scoparia) = details: Postemergence
Method in brief: as §1

[10] = tested on: lambsquarters (Chenopodium album); details: Postemergence
Method in brief: as §1

[11] = tested on: velvetleaf (Abutilon theophrasti); details: Postemergence
Method in brief: as §1

soybean (Glycine max) = details: Postemergence
Method in brief: as §1

[12] = tested on: yellow nutsedge (Cyperus esculentus); details: Postemergence
Method in brief: as §1

[13] = tested on: ragweed (common ragweed, Ambrosia elatior); details: Postemergence
Method in brief: as §1

[14] = 31 g ai/ha, 0 to 100 scale (0 no effect, 100 complete control)
[15] = 125 g ai/ha, scale 0 to 100 (0 no effect, 100 complete control)
[16] = 250 g ai/ha, scale 0 to 100 (0 no effect, 100 complete control), 13 to 15 days
[17] = 62 g ai/ha, postemergence, 0 is no effect, 100 is complete control, 13 to 15 days

CCCn1c(-c2cc(Cl)cc(Cl)c2)ncc(C(=O)C2=C(O)CCCC2=O)c1=O [Compound 173]
Plant response rating, Johnsongrass [1, 14]: 65 | Plant response rating, Johnsongrass [1, 15]: 95 | Plant response rating, Corn (corn (Zea mays); [14]): 5 | Plant response rating, Corn (corn (Zea mays); [15]): 60 | Plant response rating, Corn (corn (Zea mays); [16]): 85 | Blackgrass plant response rating (0 to 100 scale) [2, 17]: 10 | Plant response rating, Blackgrass [2, 14]: 5 | Plant response rating, Blackgrass [2, 15]: 30 | Plant response rating, Blackgrass [2, 16]: 50 | Plant response rating, Ryegrass, Italian [3, 14]: 0 | Plant response rating, Ryegrass, Italian [3, 15]: 30 | Plant response rating, Ryegrass, Italian [3, 16]: 30 | Plant response rating, Crabgrass, Large [4, 14]: 70 | Plant response rating, Crabgrass, Large [4, 15]: 95 | Plant response rating, Crabgrass, Large [4, 16]: 100 | Plant response rating, Wheat [5, 14]: 10 | Plant response rating, Wheat [5, 15]: 40 | Plant response rating, Wheat [5, 16]: 50 | Plant response rating, Oat, Wild (wild oat (Avena fatua); [14]): 50 | Plant response rating, Oat, Wild (wild oat (Avena fatua); [15]): 70 | Plant response rating, Oat, Wild (wild oat (Avena fatua); [16]): 85 | Plant response rating, Pigweed [6, 14]: 85 | Plant response rating, Pigweed [6, 15]: 100 | Plant response rating, Pigweed [6, 16]: 100 | Bromegrass, Downy plant response rating (0 to 100 scale) [7, 17]: 25 | Plant response rating, Bromegrass, Downy [7, 14]: 5 | Plant response rating, Bromegrass, Downy [7, 15]: 40 | Plant response rating, Bromegrass, Downy [7, 16]: 70 | Plant response rating, Goosegrass [8, 14]: 80 | Plant response rating, Goosegrass [8, 15]: 95 | Plant response rating, Goosegrass [8, 16]: 100 | Plant response rating, Cupgrass, Woolly [9, 14]: 85 | Plant response rating, Cupgrass, Woolly [9, 15]: 100 | Plant response rating, Cupgrass, Woolly [9, 16]: 100 | Plant response rating, Kochia (kochia (Kochia scoparia); [14]): 65 | Plant response rating, Kochia (kochia (Kochia scoparia); [15]): 98 | Plant response rating, Kochia (kochia (Kochia scoparia); [16]): 100 | Plant response rating, Lambsquarters [10, 14]: 98 | Plant response rating, Lambsquarters [10, 15]: 100 | Plant response rating, Lambsquarters [10, 16]: 100 | Plant response rating, Velvetleaf [11, 14]: 100 | Plant response rating, Velvetleaf [11, 15]: 100 | Plant response rating, Velvetleaf [11, 16]: 100 | Plant response rating, Soybean (soybean (Glycine max); [14]): 60 | Plant response rating, Soybean (soybean (Glycine max); [15]): 95 | Plant response rating, Soybean (soybean (Glycine max); [16]): 100 | Plant response rating, Nutsedge, Yellow [12, 14]: 45 | Plant response rating, Nutsedge, Yellow [12, 15]: 60 | Plant response rating, Nutsedge, Yellow [12, 16]: 75 | Plant response rating, Ragweed [13, 14]: 55 | Plant response rating, Ragweed [13, 15]: 90 | Plant response rating, Ragweed [13, 16]: 98
